Data taken from PubChem BioAssay (NCI).
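Five compound concentrations were applied to cells in 96-well plates for 48 hours; endpoints were derived by simple linear interpolation of the resulting dose-response curve. The concentration for 50% growth inhibition is given as GI50. TGI: total growth inhibition.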

Experiments:
Assay in all cases: NCI anticancer screen, dose series, 48 h
RXF 393 renal = tested on: RXF 393 renal
SK-MEL-5 melanoma = tested on: SK-MEL-5 melanoma
KM12 colon = tested on: KM12 colon
MALME-3M melanoma = tested on: MALME-3M melanoma
ACHN renal = tested on: ACHN renal
HOP-92 NSCLC = tested on: HOP-92 NSCLC
EKVX NSCLC = tested on: EKVX NSCLC
SNB-19 CNS = tested on: SNB-19 CNS
SW-620 colon = tested on: SW-620 colon
COLO 205 colon = tested on: COLO 205 colon

CCc1nc2cc(F)c(/C=C/C(=O)NO)cc2c(=O)n1CCc1ccccc1
GI50 (RXF 393 renal): 0.23 µM
TGI (RXF 393 renal): 0.731 µM
GI50 (SK-MEL-5 melanoma): 0.256 µM
TGI (SK-MEL-5 melanoma): 0.701 µM
GI50 (KM12 colon): 0.412 µM
TGI (KM12 colon): 15 µM
GI50 (MALME-3M melanoma): 0.216 µM
TGI (MALME-3M melanoma): 0.907 µM
GI50 (ACHN renal): 0.343 µM
TGI (ACHN renal): 2.56 µM
GI50 (HOP-92 NSCLC): 0.33 µM
TGI (HOP-92 NSCLC): 4.87 µM
GI50 (EKVX NSCLC): 0.387 µM
TGI (EKVX NSCLC): 15.7 µM
GI50 (SNB-19 CNS): 0.46 µM
TGI (SNB-19 CNS): 17 µM
GI50 (SW-620 colon): 0.336 µM
TGI (SW-620 colon): 12.1 µM
GI50 (COLO 205 colon): 0.221 µM
TGI (COLO 205 colon): 0.537 µM

COc1ccc(/C=C/c2c(C(=O)/C=C/c3ccccc3)c(C)nc3ccccc23)cc1
GI50 (RXF 393 renal): 1.63 µM
TGI (RXF 393 renal): 3.04 µM
GI50 (SK-MEL-5 melanoma): 1.73 µM
TGI (SK-MEL-5 melanoma): 3.13 µM
GI50 (KM12 colon): 1.77 µM
TGI (KM12 colon): 3.52 µM
GI50 (MALME-3M melanoma): 1.74 µM
TGI (MALME-3M melanoma): 3.2 µM
GI50 (ACHN renal): 1.68 µM
TGI (ACHN renal): 3.1 µM
GI50 (HOP-92 NSCLC): 1.4 µM
TGI (HOP-92 NSCLC): 3.84 µM
GI50 (EKVX NSCLC): 1.77 µM
TGI (EKVX NSCLC): 3.56 µM
GI50 (SNB-19 CNS): 1.66 µM
TGI (SNB-19 CNS): 3.07 µM
GI50 (SW-620 colon): 2.12 µM
TGI (SW-620 colon): 6.34 µM
GI50 (COLO 205 colon): 1.76 µM
TGI (COLO 205 colon): 3.5 µM

CCCC(CCC)NCC(O)c1cc(-c2ccc(C(F)(F)F)cc2)nc(C(F)(F)F)c1 (stereo not given)
GI50 (RXF 393 renal): 1.47 µM
TGI (RXF 393 renal): 2.82 µM
GI50 (SK-MEL-5 melanoma): 1.73 µM
TGI (SK-MEL-5 melanoma): 3.1 µM
GI50 (KM12 colon): 1.93 µM
TGI (KM12 colon): 3.42 µM
GI50 (MALME-3M melanoma): 2.05 µM
TGI (MALME-3M melanoma): 4.02 µM
GI50 (ACHN renal): 1.63 µM
TGI (ACHN renal): 3.16 µM
GI50 (HOP-92 NSCLC): 1.43 µM
TGI (HOP-92 NSCLC): 2.87 µM
GI50 (EKVX NSCLC): 2.01 µM
TGI (EKVX NSCLC): 3.81 µM
GI50 (SNB-19 CNS): 1.79 µM
TGI (SNB-19 CNS): 3.42 µM
GI50 (SW-620 colon): 1.57 µM
TGI (SW-620 colon): 3.05 µM
GI50 (COLO 205 colon): 2 µM
TGI (COLO 205 colon): 3.63 µM

COc1ccc(C(=O)c2cc(C)c(OC)c(C)c2)c(OC)c1O
GI50 (RXF 393 renal): 0.163 µM
TGI (RXF 393 renal): > 100 µM
GI50 (SK-MEL-5 melanoma): 0.0552 µM
TGI (SK-MEL-5 melanoma): 0.292 µM
GI50 (KM12 colon): < 0.017 µM
TGI (KM12 colon): > 100 µM
GI50 (MALME-3M melanoma): 0.0739 µM
TGI (MALME-3M melanoma): > 100 µM
GI50 (ACHN renal): 0.0566 µM
TGI (ACHN renal): > 100 µM
GI50 (HOP-92 NSCLC): 0.247 µM
TGI (HOP-92 NSCLC): > 100 µM
GI50 (EKVX NSCLC): 0.238 µM
TGI (EKVX NSCLC): > 100 µM
GI50 (SNB-19 CNS): 0.0332 µM
TGI (SNB-19 CNS): > 100 µM
GI50 (SW-620 colon): 0.0366 µM
TGI (SW-620 colon): > 100 µM
GI50 (COLO 205 colon): 7.77 µM
TGI (COLO 205 colon): 28.4 µM

Cc1cc(C)c(NC(=O)c2sc3nc4c(cc3c2N)C(=O)CCC4)c(C)c1
GI50 (RXF 393 renal): 1.32 µM
TGI (RXF 393 renal): 4.43 µM
GI50 (SK-MEL-5 melanoma): 0.998 µM
TGI (SK-MEL-5 melanoma): 13.8 µM
GI50 (KM12 colon): 2.8 µM
TGI (KM12 colon): > 100 µM
GI50 (MALME-3M melanoma): 1.83 µM
TGI (MALME-3M melanoma): > 100 µM
GI50 (ACHN renal): 6.11 µM
TGI (ACHN renal): > 100 µM
GI50 (HOP-92 NSCLC): 0.114 µM
TGI (HOP-92 NSCLC): 32.1 µM
GI50 (EKVX NSCLC): 4.28 µM
TGI (EKVX NSCLC): > 100 µM
GI50 (SNB-19 CNS): 6.12 µM
TGI (SNB-19 CNS): > 100 µM
GI50 (SW-620 colon): 2.87 µM
TGI (SW-620 colon): > 100 µM
GI50 (COLO 205 colon): 3.23 µM
TGI (COLO 205 colon): > 100 µM

O=C(O)CNS(=O)(=O)c1ccc(NC(=O)c2ccc([N+](=O)[O-])cc2)cc1
TGI (RXF 393 renal): > 100 µM
TGI (SK-MEL-5 melanoma): > 100 µM
TGI (KM12 colon): > 100 µM
TGI (MALME-3M melanoma): > 100 µM
TGI (ACHN renal): > 100 µM
TGI (HOP-92 NSCLC): > 100 µM
TGI (EKVX NSCLC): > 100 µM
TGI (SNB-19 CNS): > 100 µM
TGI (SW-620 colon): > 100 µM
TGI (COLO 205 colon): > 100 µM

COc1ccc(CN2CC(C)(C)C2=O)c(OC)c1
TGI (RXF 393 renal): > 100 µM
TGI (SK-MEL-5 melanoma): > 100 µM
TGI (KM12 colon): > 100 µM
TGI (MALME-3M melanoma): > 100 µM
TGI (ACHN renal): > 100 µM
TGI (HOP-92 NSCLC): > 100 µM
TGI (EKVX NSCLC): > 100 µM
TGI (SNB-19 CNS): > 100 µM
TGI (SW-620 colon): > 100 µM
TGI (COLO 205 colon): > 100 µM

Cc1cc2nc(C=C(C(F)(F)F)C(F)(F)F)oc2cc1C
TGI (RXF 393 renal): 4.92 µM
TGI (SK-MEL-5 melanoma): > 10 µM
TGI (KM12 colon): > 10 µM
TGI (MALME-3M melanoma): 3.76 µM
TGI (ACHN renal): > 10 µM
TGI (HOP-92 NSCLC): > 10 µM
TGI (EKVX NSCLC): 8.05 µM
TGI (SNB-19 CNS): > 10 µM
TGI (SW-620 colon): 3.42 µM
TGI (COLO 205 colon): 0.392 µM

O=C(Nc1n[nH]c2cc(-c3ccccc3)ccc12)C1CC1
GI50 (RXF 393 renal): 7.91 µM
TGI (RXF 393 renal): > 25 µM
GI50 (SK-MEL-5 melanoma): 8.75 µM
TGI (SK-MEL-5 melanoma): > 25 µM
GI50 (KM12 colon): 2.11 µM
TGI (KM12 colon): > 25 µM
GI50 (MALME-3M melanoma): > 17.7 µM
TGI (MALME-3M melanoma): > 25 µM
GI50 (ACHN renal): > 25 µM
TGI (ACHN renal): > 25 µM
GI50 (HOP-92 NSCLC): > 25 µM
TGI (HOP-92 NSCLC): > 25 µM
GI50 (EKVX NSCLC): 24.4 µM
TGI (EKVX NSCLC): > 25 µM
GI50 (SNB-19 CNS): > 19.8 µM
TGI (SNB-19 CNS): > 25 µM
GI50 (SW-620 colon): 4.77 µM
TGI (SW-620 colon): > 25 µM
GI50 (COLO 205 colon): 12.4 µM
TGI (COLO 205 colon): > 25 µM

O=C1c2cccnc2-c2nc(-c3ccc(Cl)cc3)cc3c2c1nc1ccccc13
GI50 (RXF 393 renal): 30.8 µM
TGI (RXF 393 renal): > 100 µM
GI50 (SK-MEL-5 melanoma): 17.5 µM
TGI (SK-MEL-5 melanoma): 80.8 µM
GI50 (KM12 colon): 41 µM
TGI (KM12 colon): > 100 µM
GI50 (MALME-3M melanoma): 20.2 µM
TGI (MALME-3M melanoma): 91.5 µM
GI50 (ACHN renal): 15.9 µM
TGI (ACHN renal): 33.7 µM
GI50 (HOP-92 NSCLC): 22.9 µM
TGI (HOP-92 NSCLC): 74.1 µM
GI50 (EKVX NSCLC): > 100 µM
TGI (EKVX NSCLC): > 100 µM
GI50 (SNB-19 CNS): > 100 µM
TGI (SNB-19 CNS): > 100 µM
GI50 (SW-620 colon): 28.6 µM
TGI (SW-620 colon): > 100 µM
GI50 (COLO 205 colon): > 100 µM
TGI (COLO 205 colon): > 100 µM

c1ccc(Sc2ccc(Cc3nc4cc5ccccc5cc4[nH]3)cc2)cc1
GI50 (RXF 393 renal): 21.2 µM
TGI (RXF 393 renal): > 100 µM
GI50 (SK-MEL-5 melanoma): 2.88 µM
TGI (SK-MEL-5 melanoma): 18.4 µM
GI50 (KM12 colon): 2.21 µM
TGI (KM12 colon): 46.2 µM
GI50 (MALME-3M melanoma): 9.93 µM
TGI (MALME-3M melanoma): 66.7 µM
GI50 (ACHN renal): 13.2 µM
TGI (ACHN renal): > 75.1 µM
GI50 (HOP-92 NSCLC): 6.33 µM
TGI (HOP-92 NSCLC): 66.3 µM
GI50 (EKVX NSCLC): 12.5 µM
TGI (EKVX NSCLC): > 100 µM
GI50 (SNB-19 CNS): 8.89 µM
TGI (SNB-19 CNS): > 100 µM
GI50 (SW-620 colon): 8.38 µM
TGI (SW-620 colon): > 67.6 µM
GI50 (COLO 205 colon): 10.1 µM
TGI (COLO 205 colon): 30.9 µM

CC1=CC(C)(C)N=C2SC(c3ccc(N)cc3)=NN12
TGI (RXF 393 renal): > 100 µM
TGI (SK-MEL-5 melanoma): > 100 µM
TGI (KM12 colon): > 100 µM
TGI (MALME-3M melanoma): > 100 µM
TGI (ACHN renal): > 100 µM
TGI (HOP-92 NSCLC): > 100 µM
TGI (EKVX NSCLC): > 100 µM
TGI (SNB-19 CNS): > 100 µM
TGI (SW-620 colon): > 61.2 µM
TGI (COLO 205 colon): > 61.2 µM

O=C(Nc1cc(Cl)c(Cl)cc1Cl)C(=O)C1C(=O)NC(=S)NC1=O
TGI (RXF 393 renal): > 100 µM
TGI (SK-MEL-5 melanoma): > 100 µM
TGI (KM12 colon): > 100 µM
TGI (MALME-3M melanoma): > 100 µM
TGI (ACHN renal): > 100 µM
TGI (HOP-92 NSCLC): > 100 µM
TGI (EKVX NSCLC): > 100 µM
TGI (SNB-19 CNS): > 100 µM
TGI (SW-620 colon): > 100 µM
TGI (COLO 205 colon): > 100 µM

CN1CCc2nc(N)nc(-c3nc(N)nc4c3CN(C)CC4)c2C1
TGI (RXF 393 renal): > 100 µM
TGI (SK-MEL-5 melanoma): > 100 µM
TGI (KM12 colon): > 100 µM
TGI (MALME-3M melanoma): > 100 µM
TGI (ACHN renal): > 100 µM
TGI (HOP-92 NSCLC): > 100 µM
TGI (EKVX NSCLC): > 100 µM
TGI (SNB-19 CNS): > 100 µM
TGI (SW-620 colon): > 100 µM
TGI (COLO 205 colon): > 100 µM
